# Assay results as given in US20200237875A1, “FORMULATIONS AND METHODS FOR TREATMENT OF FIBROMYALGIA AND RELATED MYOFASCIAL PAIN DISORDERS” (SYNLEV PHARMACEUTICALS CORPORATION, priority 2019, published 2020).
# “Also recorded” adds a separate entry of the source.
# How the values were obtained:
# [1] = system: patients with fibromyalgia and insulin resistance; assay: Retrospective review of Numeric Pain Rating Scale (NPRS) pain scores before and after treatment; type: in vivo, human
# Procedure: Data was obtained from the review of various patient populations as followed: First, the pain scores of two populations of patients were reviewed. Group 1 consisted of 16 patients with fibromyalgia and insulin resistance (HbA1c values of 5.7 or higher) who were prescribed metformin 500 mg twice a day for insulin resistance. In this group, metformin had been added to the “standard treatment” for fibromyalgia. The “standard treatment” (ST) consisted of norepinephrine reuptake inhibitors (amitriptyline, duloxetine or milnacipran) and/or membrane-stabilizing agents (gabapentin or pregabalin). […]
# Second, the pain scores of another group of patients with insulin resistance and fibromyalgia, Group 2, who had been treated with […], a class of drugs that reduce insulin resistance by a mechanism different from metformin were analyzed. […]
# Because peripheral neuropathies (including small fiber neuropathy) that are associated with insulin resistance may start at very early stages of pre-diabetes, there is a growing trend among experts to begin early pharmacological interventions to correct this abnormality, particularly when insulin resistance is associated with neuropathy or other risk factors. […] Pain scores were routinely recorded by the Numeric Pain Rating Scale (NPRS), at each clinical encounter. […]
# [2] = in vivo; cited from earlier work
# [3] = system: fibromyalgia; details: cited from earlier work
smiles,measurement,setting,value
CN(C)C(=N)N=C(N)N [metformin],"change in pain scores (NPRS), in words","[1]; Group 2, 10 patients: 5 metformin alone, 5 PPD-4 inhibitor alone, no ST",comparable reductions in pain scores; also recorded: this improvement was only partial
same,retention of the analgesic effect,"[1]; long-term, refers to a Table 3 that is not given",long-term retention of the analgesic effect
same,individuals intolerant to metformin,[2],at least 20%
CNCC[C@H](Oc1cccc2ccccc12)c1cccs1 [duloxetine],NNT (numbers needed to treat),[3],6
CN(C)CCC=C1c2ccccc2CCc2ccccc21 [amitriptyline],NNT (numbers needed to treat),[3],4
